Experimental data reported in ChEMBL document CHEMBL5050837, “Rictor-targeted therapy in the management of brain metastases” (2021).
The source made the active and inactive calls. No cut-off for these calls is given here.

What was measured:
HCC827 [1] = experiment: Antiproliferative activity against doxycycline-induced RICTOR-knockdown human HCC827 cells; assay type: functional, cell-based
HCC827 [2] = experiment: Antitumor activity against erlotinib-resistant doxycycline-induced RICTOR-knockdown human HCC827 cells xenografted in mouse assessed as decrease in Axl expression; assay type: functional, cell-based
HCC827 [3] = experiment: Antiproliferative activity against erlotinib-resistant doxycycline-induced RICTOR-knockdown human HCC827 cells assessed as fold decrease in compound IC50; assay type: functional
PC-9 [4] = experiment: Antiproliferative activity against doxycycline-induced RICTOR-knockdown human PC-9 cells; assay type: functional, cell-based
HCC827 [5] = experiment: Antitumor activity against erlotinib-resistant doxycycline-induced RICTOR-knockdown human HCC827 cells xenografted in mouse assessed as inhibition of tumor growth; assay type: functional, cell-based
PC-9 [6] = experiment: Down-regulation of Axl in RICTOR-knockdown human PC-9 cells assessed as half-life of Axl; assay type: functional, cell-based
NCI-H23 [7] = experiment: Inhibition of RICTOR-amplified human NCI-H23 cells invasion; assay type: functional, cell-based
NCI-H23 [8] = experiment: Antitumor activity against RICTOR-knockdown human NCI-H23 cells xenografted in mouse assessed as inhibition of tumor growth; assay type: functional
NCI-H1703 [9] = experiment: Inhibition of RICTOR-amplified human NCI-H1703 cells invasion; assay type: functional, cell-based
HCC827 [10] = experiment: Inhibition of RICTOR-upregulated human HCC827 cell invasion; assay type: functional, cell-based
HCC827 [11] = experiment: Inhibition of RICTOR-upregulated human HCC827 cell migration; assay type: functional, cell-based
NCI-H23 [12] = experiment: Inhibition of RICTOR-amplified human NCI-H23 cells migration; assay type: functional, cell-based
NCI-H1703 [13] = experiment: Inhibition of RICTOR-amplified human NCI-H1703 cells migration; assay type: functional, cell-based
HCC827 [14] = experiment: Induction of apoptosis in erlotinib-resistant human HCC827 cells with RICTOR-knockdown; assay type: functional, cell-based
HCC827 [15] = experiment: Induction of apoptosis in RICTOR-upregulated human HCC827 cells; assay type: functional, cell-based

Row | Structure (SMILES) | Activity (HCC827 [1]) | Activity (PC-9 [4]) | inhibition (NCI-H23 [7]) | inhibition (NCI-H1703 [9]) | inhibition (NCI-H23 [12]) | inhibition (NCI-H1703 [13]) | further results
1 | C#Cc1cccc(Nc2ncnc3cc(OCCOC)c(OCCOC)cc23)c1 [ERLOTINIB] | Active | Active | – | – | – | – | Activity (HCC827 [2]): Active; fold change (FC) (HCC827 [3]): 1000; Activity (HCC827 [5]): Active
2 | C[C@@H]1C[C@@H]([C@H](O)CC2CC(=O)NC(=O)C2)C(=O)[C@@H](C)C1 | – | – | – | – | – | – | T1/2 (PC-9 [6]): 3.2 h
3 | CC(C)n1nc(-c2ccc3oc(N)nc3c2)c2c(N)ncnc21 [SAPANISERTIB] | – | – | Active | Active | Active | Active | TGI (NCI-H23 [8]): 75%; inhibition (HCC827 [10]): Active; inhibition (HCC827 [11]): Active
4 | CNC(=O)c1cccc(-c2ccc3c(N4CCOC[C@@H]4C)nc(N4CCOC[C@@H]4C)nc3n2)c1 | – | – | Active | Active | Active | Active | –
5 | C=CC(=O)Nc1cc(Nc2nccc(-c3cn(C)c4ccccc34)n2)c(OC)cc1N(C)CCN(C)C | – | Active | – | – | – | – | Activity (HCC827 [14]): Active; Activity (HCC827 [15]): inactive
6 | CN(C)C/C=C/C(=O)Nc1cc2c(Nc3ccc(F)c(Cl)c3)ncnc2cc1O[C@H]1CCOC1 | Active | – | – | – | – | – | –
